Laboratory results published in publication PMC3985777 (Biochemistry, 2014).

Tests used:
[1] = molecular target: HasAp (Pseudomonas aeruginosa, UniProt G3XD33, H83A); assay: biochemical
[2] = molecular target: HasAp (Pseudomonas aeruginosa, UniProt G3XD33, Y75A); assay: biochemical

`C=CC1=C(C)C2=Cc3c(C=C)c(C)c4[n]3[Fe]([Cl])[n]3c(c(C)c(CCC(=O)O)c3=CC3=NC(=C4)C(C)=C3CCC(=O)O)=CC1=N2` [hemin] gave a Kd [1] of 30 µM and a Kd [2] of 129 µM.
